Assay results taken from patent US12509462B2, “3-(phenylsulfonyl)-[1,2,3]triazolo[1,5A]quinazolin-5(4H)-one derivatives” (BIOVERSYS AG, priority 2018, dated 2025).
pIC50: −log10 of the molar value. Converted amounts (≈) assume the structure as drawn.

Columns and labels:
[1] = tested on: MRSA (USA300 isolate); assay: Hemolysis Assay I (exotoxin-mediated lysis of rabbit red blood cells by culture supernatant); assay type: cell-based, Staphylococcus aureus; conditions: 30/10/3.3/1.1/0.37 μM compound, values at OD600 of 0.75
[2] = tested on: Staphylococcus aureus MRSA strain (USA300 isolate); assay: Hemolysis Assay II (exotoxin-mediated lysis of rabbit red blood cells by culture filtrate); assay type: cell-based; conditions: Erythrocyte; for minimal effective concentration / IC95: 18 h; for minimal effective concentration: absorbance <2× the average of the complete inhibition control, read-out: Hemolysis assay II MEC (minimal effective concentration); for IC95: read-out: Hemolysis assay II IC95; for IC50: 18 h culture in CA-MHB, rabbit red blood cells
[3] = tested on: psmα; assay type: cell-based, Staphylococcus aureus
[4] = tested on: RNAIII; assay type: cell-based, Staphylococcus aureus; conditions: 10 μM compound, two hours, MRSA (USA300 isolate), normalized to rpoD
[5] = tested on: HepG2; conditions: human, 48 h
[6] = tested on: MRSA; assay: MIC by broth microdilution in CA-MHB (CLSI); conditions: Staphylococcus aureus, 18 h, read-out: MIC on MRSA
Method: Minimal inhibitory concentrations (MIC) were determined by broth microdilution method in cation-adjusted Mueller-Hinton (CA-MHB) broth according to the CLSI guideline. From an overnight culture plate, cells were resuspended in 0.9% (w/v) saline solution and bacterial inoculum was prepared in CA-MHB with 5×10^5 CFU/ml. Compounds were two-fold serially diluted in CA-MHB and 10 μL of this 10× concentrated samples were added into the 96-well plate. 90 μL of bacterial suspension was finally added to the compounds. Plates were covered and incubated without shaking at 35° C. for 18 hours. Every experiment contained an antibiotic as quality control. MIC was determined visually as the lowest concentration of a compound that prevents visible growth of the bacteria and the plates were scanned for documentation.

[7] = Staphylococcus aureus, Erythrocyte

SMILES	pIC50 [1, 7]	minimal effective concentration [2] [µg/mL]	IC95 [2] [µg/mL]	IC50 [2] [µg/mL]	Downregulation of psmα expression at 10 μM [3]	Downregulation of RNAIII expression at 10 μM [4]	LD50 HepG2 [5]	MIC [6] [µM]	pIC50 [1]
COc1ccc2c(=O)[nH]c3c(S(=O)(=O)c4ccc(C)cc4C)nnn3c2c1 [Compound 5, 3-(2,4-dimethylphenyl)sulfonyl-8-methoxy-4H-triazolo[1,5-a]quinazolin-5-one]	5.22	6	11.7 (≈ 30.3 µM)	2.05 (≈ 5.33 µM)	++ (++ downregulation>100-fold (2 log10))	+ (+ downregulation>10-fold (1 log10))	>=100 μM	≥ 100	–
COc1ccc2c(=O)[nH]c3c(S(=O)(=O)c4ccc(C)cc4Cl)nnn3c2c1 [Compound 12, 3-(2-chloro-4-methyl-phenyl)sulfonyl-8-methoxy-4H-triazolo[1,5-a]quinazolin-5-one]	~6.00	3	2.75 (≈ 6.79 µM)	0.85 (≈ 2.1 µM)	++ (++ downregulation>100-fold (2 log10))	++ (++ downregulation>100-fold (2 log10))	>=100 μM	≥ 100	5.89
COc1ccc2c(=O)[nH]c3c(S(=O)(=O)c4ccc(C)cc4Br)nnn3c2c1 [Compound 18, 3-(2-bromo-4-methyl-phenyl)sulfonyl-8-methoxy-4H-triazolo[1,5-a]quinazolin-5-one]	~6.00	3	2.75 (≈ 6.12 µM)	0.95 (≈ 2.11 µM)	++ (++ downregulation>100-fold (2 log10))	++ (++ downregulation>100-fold (2 log10))	>=100 μM	≥ 100	6.10
COc1ccc2c(=O)[nH]c3c(S(=O)(=O)c4ccc(C)cc4C(F)(F)F)nnn3c2c1 [Compound 26, 8-methoxy-3-[4-methyl-2-(trifluoromethyl)phenyl]sulfonyl-4H-triazolo[1,5-a]quinazolin-5-one]	~6.00	6	4.15 (≈ 9.47 µM)	1 (≈ 2.28 µM)	++ (++ downregulation>100-fold (2 log10))	++ (++ downregulation>100-fold (2 log10))	>=100 μM	≥ 100	6.15
